Test results: patent US20240158348A1, “HERBICIDAL CYCLIC AMIDES N-SUBSTITUTED WITH A HALOALKYLSULFONYLANILIDE GROUP” (FMC Corporation, priority 2021, published 2024)

What was measured:
Type in all cases: in vivo
[1] = system: ryegrass, Italian (Italian ryegrass, Lolium multiflorum); test: Test C postemergence, Italian ryegrass; conditions: for Ryegrass, Italian plant response rating: visual injury, 0 to 100 scale (0 no effect, 100 complete control); for Plant response rating (0 to 100 scale), Ryegrass, Italian: 0 is no effect, 100 is complete control
Procedure, shortened: (§1)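 Visual injury rating, 0 (no effect) to 100 (complete control), versus untreated controls after 10 or 12 days in the greenhouse. Compounds were formulated in non-phytotoxic solvent plus surfactant and applied either as a directed soil spray at sowing or onto emerged one- to two-leaf plants.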

[2] = system: blackgrass (Alopecurus myosuroides); test: Test C postemergence, blackgrass; conditions: 125 g ai/ha Postemergence; 0 is no effect, 100 is complete control
kochia (Bassia scoparia) = test: Test C preemergence, kochia; conditions: 0 is no effect, 100 is complete control
Procedure, shortened: as §1

Row | Structure (SMILES) | Ryegrass, Italian plant response rating ([1]; 31 g ai/ha Postemergence) | Ryegrass, Italian plant response rating ([1]; 125 g ai/ha Postemergence) | Plant response rating (0 to 100 scale), Blackgrass [2] | Plant response rating (0 to 100 scale), Kochia (kochia (Bassia scoparia); 31 g ai/ha Preemergence) | Plant response rating (0 to 100 scale), Kochia (kochia (Bassia scoparia); 125 g ai/ha Preemergence) | Plant response rating (0 to 100 scale), Ryegrass, Italian ([1]; 125 g ai/ha Postemergence)
1 | Cc1c(NS(=O)(=O)C(F)(F)F)cc(N2CCC(OC3CC3)C2=O)c(C)c1F (stereo not shown) [Compound 26] | 60 | 100 | 90 | 100 | 100 | –
2 | Cc1cc(C)c(N(COC(=O)C(C)(C)C)S(=O)(=O)C(F)(F)F)cc1N1CCC(OCC2CC(F)(F)C2)C1=O (stereo not shown) [Compound 55] | 0 | 60 | – | 0 | 10 | –
3 | CCO/N=C1\CCN(c2cc(NS(=O)(=O)C(F)(F)F)c(C)cc2C)C1=O [Compound 12, N-[5-[3-(ethoxyimino)-2-oxo-1-pyrrolidinyl]-2,4-dimethylphenyl]-1,1,1-trifluoromethanesulfonamide] | 70 | – | 100 | 100 | 100 | 80
4 | Cc1c(N2CCC(OC3CC3)C2=O)cc(N(COC(=O)C(C)(C)C)S(=O)(=O)C(F)(F)F)c(C)c1C (stereo not shown) [Compound 49] | 50 | 90 | – | 30 | 70 | –
5 | Cc1cc(C)c(N2CCC(OCC3CC3(F)F)C2=O)cc1NS(=O)(=O)C(F)(F)F (stereo not shown) [Compound 41] | 30 | 100 | – | 100 | 100 | –
6 | Cc1cc(C)c(N2CCC(OCC3CCC3(F)F)C2=O)cc1NS(=O)(=O)C(F)(F)F (stereo not shown) [Compound 52] | 40 | 100 | – | 70 | 100 | –
7 | Cc1c(N2CCCC(OC3CC3)C2=O)cc(N(COC(=O)C(C)(C)C)S(=O)(=O)C(F)(F)F)c(C)c1F (stereo not shown) [Compound 37] | 0 | 60 | 60 | 0 | 90 | –
8 | Cc1c(NS(=O)(=O)C(F)(F)F)cc(N2CCC(OC3CCC3)C2=O)c(C)c1F (stereo not shown) [Compound 25] | 20 | 70 | 90 | 70 | 100 | –
9 | CC#CCOC1CCN(c2cc(NS(=O)(=O)C(F)(F)F)c(C)cc2C)C1=O (stereo not shown) [Compound 60] | 50 | 70 | – | 90 | 100 | –
10 | Cc1cc(Cl)c(N(COC(=O)C(C)(C)C)S(=O)(=O)C(F)(F)F)cc1N1CCC(OC2CC2)C1=O (stereo not shown) [Compound 33] | 20 | 90 | 60 | 100 | 100 | –
11 | Cc1cc(C)c(N2CCC(OC3COC3)C2=O)cc1NS(=O)(=O)C(F)(F)F (stereo not shown) [Compound 34] | 40 | 90 | 60 | 90 | 100 | –
12 | Cc1cc(C)c(N(C(=O)OC(C)C)S(=O)(=O)C(F)(F)F)cc1N1CCC(OC2CC2)C1=O (stereo not shown) [Compound 18] | 0 | – | 0 | 0 | 60 | 0
13 | Cc1c(NS(=O)(=O)C(F)(F)F)cc(N2CCCC(OC3CC3)C2=O)c(C)c1F (stereo not shown) [Compound 35] | 50 | 60 | 60 | 20 | 80 | –
14 | Cc1c(N2CCCC(OC3CCC3)C2=O)cc(N(COC(=O)C(C)(C)C)S(=O)(=O)C(F)(F)F)c(C)c1F (stereo not shown) [Compound 39] | 0 | 30 | 10 | 20 | 60 | –
15 | Cc1c(NS(=O)(=O)C(F)(F)F)cc(N2CCCC(OC3CCC3)C2=O)c(C)c1F (stereo not shown) [Compound 36] | 0 | 40 | 30 | 20 | 90 | –
16 | Cc1cc(C)c(N(COC(=O)C(C)(C)C)S(=O)(=O)C(F)(F)F)cc1N1CCC(OCC2CC2(F)F)C1=O (stereo not shown) [Compound 54] | 60 | 70 | – | 0 | 30 | –
17 | COC(=O)N(c1cc(N2CCC(OC3CC3)C2=O)c(C)cc1Cl)S(=O)(=O)C(F)(F)F (stereo not shown) [Compound 40] | 60 | 80 | 60 | 90 | 100 | –
